Here are results for 11 compounds from patent US7393870B2, “3-(heteroarylamino)methylene-1, 3-dihydro-2H-indol-2-ones as kinase inhibitors” (Allergan, Inc., priority 2001, dated 2008).

Molecules are shown by their SMILES.

The target in the first test is T1, cytoplasmic domain of the human VEGF receptor (VEGFR-2) (Homo sapiens, UniProt P35968).
T1 construct: The cytoplasmic domain of the human VEGF receptor (VEGFR-2) was expressed as a Histidine-tagged fusion protein; His (Histidine tag); made in house; host or cells: insect cells infected with an engineered baculovirus
T1 sequence (P35968 786-1356 limits assumed): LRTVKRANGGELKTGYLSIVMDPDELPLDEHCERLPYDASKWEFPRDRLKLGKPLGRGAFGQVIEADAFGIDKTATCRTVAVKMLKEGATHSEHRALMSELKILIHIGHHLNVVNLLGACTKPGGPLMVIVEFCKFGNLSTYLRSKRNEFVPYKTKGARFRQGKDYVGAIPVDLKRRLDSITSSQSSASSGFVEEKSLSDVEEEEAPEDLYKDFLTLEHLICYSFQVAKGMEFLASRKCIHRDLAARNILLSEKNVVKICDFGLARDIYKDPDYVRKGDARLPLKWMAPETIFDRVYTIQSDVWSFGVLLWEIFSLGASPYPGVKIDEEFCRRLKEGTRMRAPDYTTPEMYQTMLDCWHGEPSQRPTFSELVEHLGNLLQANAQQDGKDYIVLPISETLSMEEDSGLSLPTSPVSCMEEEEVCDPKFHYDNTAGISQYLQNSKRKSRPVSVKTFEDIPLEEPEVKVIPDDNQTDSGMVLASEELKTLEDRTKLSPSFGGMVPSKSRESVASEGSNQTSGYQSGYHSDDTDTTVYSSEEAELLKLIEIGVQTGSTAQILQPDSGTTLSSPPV
The experiment in a line: KDR Assay (kinase ELISA, poly-Glu-Tyr substrate). It counts as biochemical. To be noted: His-VEGFR-2, 3.6 μM ATP. As for the experimental part:
Automated FLIPR (Fluorometric Imaging Plate Reader) technology was used to screen for inhibitors of VEGF induced increases in intracellular calcium levels in fluorescent dye loaded endothelial cells. HUVEC (human umbilical vein endothelial cells) (Clonetics) were seeded in 96-well fibronectin coated black-walled plates overnight @ 37° C./5% CO2. Cells were loaded with calcium indicator Fluo-4 for 45 minutes at 37° C. Cells were washed 4 times (Original Cell Wash, Labsystems) to remove extracellular dye. Test compounds were reconstituted in 100% DMSO and added to the cells to give a final DMSO concentration of 0.1%. For screening, cells were pre-incubated with test agents for 30 minutes, at a single concentration (10 μM) or at concentrations ranging from 0.01 to 10.0 μM followed by VEGF stimulation (5 ng/mL). Changes in fluorescence at 516 nm were measured simultaneously in all 96 wells using a cooled CCD camera. Data were generated by determining max-min fluorescence levels for unstimulated, stimulated, and drug treated samples. IC50 values for test compounds were calculated from % inhibition of VEGF stimulated responses in the absence of inhibitor. Protocol for KDR Assay: The cytoplasmic domain of the human VEGF receptor (VEGFR-2) was expressed as a Histidine-tagged fusion protein following infection of insect cells using an engineered baculovirus. His-VEGFR-2 was purified to homogeneity, as determined by SDS-PAGE, using nickel resin chromatography. Kinase assays were performed in 96 well microtiter plates that were coated overnight with 30 μg of poly-Glu-Tyr (4:1) in 10 mM Phosphate Buffered Saline (PBS), pH 7.2-7.4. The plates were incubated with 1% BSA and then washed four times with PBS prior to starting the reaction. Reactions were carried out in 120 μL reaction volumes containing 3.6 μM ATP in kinase buffer (50 mM Hepes buffer pH 7.4, 20 mM MgCl2, 0.1 mM MnCl2 and 0.2 mM Na3VO4). Test compounds were reconstituted in 100% DMSO and added to the reaction to give a final DMSO concentration of 5%. Reactions were initiated by the addition 0.5 ng of purified protein. Following a ten minute incubation at 25° C., the reactions were washed four times with PBS containing 0.05% Tween-20. 100 μl of a monoclonal anti-phosphotyrosine antibody-peroxidase conjugate was diluted 1:10000 in PBS-Tween-20 and added to the wells for 30 minutes. Following four washes with PBS-Tween-20, 100 μl of 0-Phenylenediamine Dihydrochloride in Phosphate-citrate buffer, containing urea hydrogen peroxide, was added to the wells for 7 minutes as a colorimetric substrate for the peroxidase. The reaction was terminated by the addition of 100 μl of 2.5N H2SO4 to each well and read using a microplate ELISA reader set at 492 nm. IC50 values for compound inhibition were calculated directly from graphs of optical density (arbitrary units) versus compound concentration following subtraction of blank values. Miles Assay Description VEGF-induced Dermal Extravasation in Guinea Pig (Miles Assay). Male Hartley guinea pigs (300-600 g) were anesthetized with isofluorane, sheared, and given a single oral dose of drug or the respective vehicle. Ten minutes prior to the end of drug treatment, guinea pigs were anesthetized with isofluorane, and 0.5% Evans blue dye (EBD) in PBS (13-15 mg/kg dose of EBD) was injected intravenously. After 5 minutes, triplicate intradermal injections of 100 ng rhVEGF165 in 100 μl PBS and of 100 μl PBS alone were administered on the flank. After 20 minutes, each animal was euthanized with Pentosol, and the skin containing the intradermal injection sites was removed for image analysis.
A general note: In an ELISA, binding on a coated surface is turned into a signal by an enzyme label.
Consider `Cc1cccc2c1C(=CNc1n[nH]c(-c3ccccc3)c1Br)C(=O)N2` [Example 12, 3-[(4-Bromo-5-phenyl-1H-pyrazol-3-ylamino)-methylene]-4-methyl-1,3-dihydro-indol-2-one], for which the IC50 was ≥ 10 µM.
Consider `O=C1Nc2ccc(Cl)cc2C1=CNc1n[nH]c(-c2ccccc2)c1Br` [Example 13, 3-[(4-Bromo-5-phenyl-1H-pyrazol-3-ylamino)-methylene]-5-chloro-1,3-dihydro-indol-2-one], for which the IC50 was ≥ 10 µM.
Same read-out and setting: the same measure for `COC(=O)c1ccc(-c2cc(NC=C3C(=O)Nc4ccccc43)n[nH]2)cc1` [Example 24, 4-{5-[(2-Oxo-1,2-dihydro-indol-3-ylidenemethyl)-amino]-2H-pyrazol-3-yl}-benzoic acid methyl ester]: ≥ 10 µM.
On to `Cc1cc(C)c2c(NC=C3C(=O)Nc4ccccc43)n[nH]c2n1` [Example 25, 3-[(4,6-Dimethyl-1H-pyrazolo[3,4-b]pyridin-3-ylamino)-methylene]-1,3-dihydro-indol-2-one], for which the IC50 is ≥ 10 µM.
On to `O=C1Nc2ccccc2C1=CNc1cc(-c2cc(OCc3ccccc3)cc(OCc3ccccc3)c2)n[nH]1` [Example 31, 3-{[5-(3,5-Bis-benzyloxy-phenyl)-2H-pyrazol-3-ylamino]-methylene}-1,3-dihydro-indol-2-one], for which the IC50 is ≥ 10 µM.
For the compound `Cc1ccc(-c2cc(NC=C3C(=O)Nc4ccccc43)[nH]n2)c(C)c1` [Example 34, 3-{[5-(2,4-Dimethyl-phenyl)-2H-pyrazol-3-ylamino]-methylene}-1,3-dihydro-indol-2-one], the IC50 is ≥ 10 µM.
In the case of `Cc1cc(C)c(Cc2cc(NC=C3C(=O)Nc4ccccc43)[nH]n2)c(C)c1` [Example 36], the IC50 was ≥ 10 µM.
Regarding `Cc1cccc(Cc2cc(NC=C3C(=O)Nc4ccccc43)[nH]n2)c1` [Example 39, 3-{[5-(3-Methyl-benzyl)-2H-pyrazol-3-ylamino]-methylene}-1,3-dihydro-indol-2-one], the IC50 was ≥ 10 µM.
In the case of `O=C1Nc2ccccc2C1=CNc1cc(Cc2ccccc2)n[nH]1` [Example 40, 3-[(5-Benzyl-2H-pyrazol-3-ylamino)-methylene]-1,3-dihydro-indol-2-one], the IC50 was ≥ 10 µM.

The next test concerns VEGF induced increases in intracellular calcium levels in HUVEC (human umbilical vein endothelial cells). The test is described as follows: VEGF Stimulated Ca++ signal assay (FLIPR). It counts as cell-based. To be noted: 10 μM compound, 30 min pre-incubation, VEGF 5 ng/mL. The procedure:
VEGF Stimulated Ca^++ Signal in vitro
(§1) Automated FLIPR (Fluorometric Imaging Plate Reader) technology was used to screen for inhibitors of VEGF induced increases in intracellular calcium levels in fluorescent dye loaded endothelial cells. HUVEC (human umbilical vein endothelial cells) (Clonetics) were seeded in 96-well fibronectin coated black-walled plates overnight @ 37° C./5% CO2. Cells were loaded with calcium indicator Fluo-4 for 45 minutes at 37° C. Cells were washed 4 times (Original Cell Wash, Labsystems) to remove extracellular dye. Test compounds were reconstituted in 100% DMSO and added to the cells to give a final DMSO concentration of 0.1%. […] Changes in fluorescence at 516 nm were measured simultaneously in all 96 wells using a cooled CCD camera. Data were generated by determining max-min fluorescence levels for unstimulated, stimulated, and drug treated samples. IC50 values for test compounds were calculated from % inhibition of VEGF stimulated responses in the absence of inhibitor. Protocol for KDR Assay: The cytoplasmic domain of the human VEGF receptor (VEGFR-2) was expressed as a Histidine-tagged fusion protein following infection of insect cells using an engineered baculovirus. His-VEGFR-2 was purified to homogeneity, as determined by SDS-PAGE, using nickel resin chromatography. […]
As for `Cc1cc(C)c(Cc2cc(NC=C3C(=O)Nc4ccccc43)[nH]n2)c(C)c1` [Example 36], the inhibition at 10 µM worked out at 69.3%.

Still in this test, the particulars now being: VEGF 5 ng/mL, 0.01 to 10.0 μM.
Consider `Cc1cc(C)c(Cc2cc(NC=C3C(=O)Nc4ccccc43)[nH]n2)c(C)c1` [Example 36], for which the IC50 is 5.9 µM.

The subject of a further test is VEGF-induced EBD extravasation. The experiment in a line: Miles Assay: VEGF-induced Dermal Extravasation in Guinea Pig. It is filed as in vivo. To be noted: oral administration, Table 3. The procedure:
as §1
For `Cc1cccc2c1C(=CNc1cc[nH]n1)C(=O)N2` [Example 6, 4-Methyl-3-[(1H-pyrazol-3-ylamino)-methylene]-1,3-dihydro-indol-2-one], the “in-vivo activity (Miles Assay, in words)” value was “significant in-vivo activity”.
On the same count and under the same terms, with `Cc1cc(NC=C2C(=O)Nc3ccc(F)cc32)n[nH]1` [Example 26, 5-Fluoro-3-[(5-methyl-1H-pyrazol-3-ylamino)-methylene]-1,3-dihydro-indol-2-one] the entry was “significant in-vivo activity”.

The IC50 is the concentration at which inhibition is half-maximal. The inhibition is the share of the control response that was lost under treatment.
